Measurements: patent publication US12180207B2 (ARRAY BIOPHARMA INC., priority 2018, dated 2024)

Legend:
[1] = target: dephosphorylated FGFR1 (SEQ ID NO: 1, amino acids 458 to 765) (Homo sapiens (Human), UniProt P11362); test: FGFR enzyme binding assay (HTRF tracer displacement), FGFR1; details: 5 nM dephosphorylated FGFR1, average of multiple determinations if made
How it was run: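 Compounds were tested for displacement of a tracer from human FGFR kinase in a time-resolved FRET binding format. After 60 minutes at 22° C, signal was read at two wavelengths and converted to percent of control, normalised between untreated wells and 1 μM reference inhibitor.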

[2] = target: recombinant human FGFR3 (amino acids R397-T806) (Homo sapiens (Human), UniProt P22607); test: FGFR3 enzyme activity assay (LanthaScreen TR-FRET); type: biochemical; details: 25 μM ATP, 10 min incubation at 22° C., average of multiple determinations if made, read-out: FGFR3 Enz FRET IC50
How it was run: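 GST-HIS6-tagged human FGFR3 (R397-T806) was reacted with 100 nM Alexa Fluor 647-Poly-GT substrate and 25 μM ATP plus compound in HEPES/MgCl2/Triton buffer, pH 7.5, 2% DMSO, for 10 min at 22 °C.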

[3] = target: FGFR1 (SEQ ID NO: 1, amino acids 458-765) (Homo sapiens (Human), UniProt P11362); test: LC/MS FGFR1 kobs assay (covalent protein modification); type: binding; details: 500 nM FGFR1, 3 μM compound
How it was run: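 Covalent labeling of FGFR1 kinase domain (aa 458-765) tracked over time by intact-protein LC/MS after formic acid quench. kobs derived by fitting DMSO-normalized percent unmodified FGFR1 to an exponential decay model.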

[4] = target: FGFR3 (SEQ ID NO: 5, amino acids 449-759) (Homo sapiens (Human), UniProt P22607); test: LC/MS FGFR3 kobs assay (covalent protein modification); type: binding; details: 500 nM FGFR3, 3 μM compound
How it was run: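 Covalent modification of FGFR1 (aa 458-765) or FGFR3 (aa 449-759) followed over time; reactions quenched with 0.4% formic acid and analysed by Q-TOF LC/MS after deconvolution. Percent unmodified protein, normalized to DMSO controls, fit to exponential decay to give kobs; averaged where repeated.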

[5] = target: HEK-293 cells transfected with dox-inducible human wild type FGFR1 (Homo sapiens (Human), UniProt P11362); test: FGFR1 pERK cell assay; type: cell-based; details: HEK-293 dox-inducible FGFR1, 1 hour compound, 100 ng/ml FGF-acidic; maximum concentration 5 μM
Procedure: FGFR1 pERK Cell Assay: • HEK-293 cells transfected with doxycycline(dox)-inducible human wild type FGFR1 (SEQ ID NO: 1) were plated in a collagen or poly-D-lysine coated 96 well flat bottom plates at 4×10^5 cells/well in complete Dulbecco's Modified Eagle Medium (DMEM) containing 10% FBS and 1 μg/ml doxycycline and allowed to attach for 24 h at 37° C., 5% CO2. Cells were treated with compound using 1:3 serial dilutions with a maximum final concentration of 5 μM. Compound was incubated on cells for 1 hour at 37° C., 5% CO2. Cells were then stimulated with a final concentration of 100 ng/ml human FGF-acidic (R&D Systems Cat number 232-FA/CF) for 5 minutes at 37° C., 5% CO2. Medium was removed, and cells were lysed with lysis buffer containing phosphatase and protease inhibitors. Phospho ERK1/2 was measured using the Meso Scale Discovery sandwich assay (Meso Scale Discovery cat. no. K151DWD). The assay captures phospho ERK1/2 and detects with a sulfo-tagged total ERK1/2 antibody. The chemiluminescent signal was read on the Sector Imager Plate reader. 100 POC was determined using no test compound and 0 POC was determined using a control compound. The POC values were fit to a 4-parameter logistic curve as a function of the concentration of the compound, and the IC50 value is the point where the curve crosses 50 POC.

HEK-293 cells transfected with dox-inducible human wild type FGFR1, sequence (P11362 22-822): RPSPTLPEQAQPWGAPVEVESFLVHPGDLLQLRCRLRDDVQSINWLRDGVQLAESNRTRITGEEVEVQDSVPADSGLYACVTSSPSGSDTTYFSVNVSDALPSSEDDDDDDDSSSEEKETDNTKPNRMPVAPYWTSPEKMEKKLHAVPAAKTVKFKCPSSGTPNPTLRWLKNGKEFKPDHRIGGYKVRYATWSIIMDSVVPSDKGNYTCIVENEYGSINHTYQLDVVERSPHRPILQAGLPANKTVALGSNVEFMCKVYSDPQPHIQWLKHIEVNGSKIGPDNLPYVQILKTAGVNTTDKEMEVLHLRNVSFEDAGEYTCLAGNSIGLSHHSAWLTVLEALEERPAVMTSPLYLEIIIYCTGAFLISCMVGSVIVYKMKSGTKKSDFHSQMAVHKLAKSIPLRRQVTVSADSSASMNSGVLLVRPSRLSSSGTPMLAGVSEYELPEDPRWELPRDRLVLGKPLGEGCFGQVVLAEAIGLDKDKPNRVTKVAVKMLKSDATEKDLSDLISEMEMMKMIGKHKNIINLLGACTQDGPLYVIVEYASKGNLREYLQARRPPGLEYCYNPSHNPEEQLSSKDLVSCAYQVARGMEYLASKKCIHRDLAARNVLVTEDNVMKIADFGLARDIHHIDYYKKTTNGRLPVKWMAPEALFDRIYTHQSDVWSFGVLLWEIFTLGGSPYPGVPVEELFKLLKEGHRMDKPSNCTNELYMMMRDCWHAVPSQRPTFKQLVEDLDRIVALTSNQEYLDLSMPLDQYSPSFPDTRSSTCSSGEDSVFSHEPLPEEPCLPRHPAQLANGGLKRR
recombinant human FGFR3 (amino acids R397-T806), sequence (P22607 397-806): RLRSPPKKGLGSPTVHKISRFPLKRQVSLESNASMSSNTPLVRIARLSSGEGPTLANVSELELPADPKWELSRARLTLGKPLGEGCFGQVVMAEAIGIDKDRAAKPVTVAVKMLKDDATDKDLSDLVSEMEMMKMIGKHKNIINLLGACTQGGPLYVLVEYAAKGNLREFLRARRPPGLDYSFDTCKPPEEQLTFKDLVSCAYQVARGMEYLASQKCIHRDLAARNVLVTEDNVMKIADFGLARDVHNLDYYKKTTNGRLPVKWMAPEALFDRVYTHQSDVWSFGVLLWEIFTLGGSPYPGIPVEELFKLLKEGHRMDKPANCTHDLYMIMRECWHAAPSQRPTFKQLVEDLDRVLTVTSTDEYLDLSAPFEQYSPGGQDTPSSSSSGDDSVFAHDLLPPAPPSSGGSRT
FGFR3 (SEQ ID NO: 5, amino acids 449-759), sequence (P22607 449-759): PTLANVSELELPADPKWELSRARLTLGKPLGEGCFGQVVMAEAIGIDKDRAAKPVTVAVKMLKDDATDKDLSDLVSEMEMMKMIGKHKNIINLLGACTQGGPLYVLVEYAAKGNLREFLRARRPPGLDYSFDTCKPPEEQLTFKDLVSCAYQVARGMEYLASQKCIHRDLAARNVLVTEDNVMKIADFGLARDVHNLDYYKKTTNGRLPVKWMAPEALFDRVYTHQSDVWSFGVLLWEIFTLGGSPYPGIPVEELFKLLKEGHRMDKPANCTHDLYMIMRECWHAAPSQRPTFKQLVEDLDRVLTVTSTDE
FGFR1 (SEQ ID NO: 1, amino acids 458-765), sequence (P11362 458-765): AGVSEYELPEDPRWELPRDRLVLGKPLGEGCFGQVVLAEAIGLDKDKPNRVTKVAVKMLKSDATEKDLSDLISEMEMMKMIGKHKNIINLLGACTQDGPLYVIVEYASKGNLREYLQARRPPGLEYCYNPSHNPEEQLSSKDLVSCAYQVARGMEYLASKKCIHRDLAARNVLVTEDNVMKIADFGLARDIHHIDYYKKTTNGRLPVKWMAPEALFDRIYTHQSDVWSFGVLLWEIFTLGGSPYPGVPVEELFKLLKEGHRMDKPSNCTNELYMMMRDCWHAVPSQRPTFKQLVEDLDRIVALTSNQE
dephosphorylated FGFR1 (SEQ ID NO: 1, amino acids 458 to 765), sequence (P11362 458-765): as above

SMILES	IC50 [1]	IC50 [2]	FGFR1 Enz kobs [3]	FGFR3 Enz kobs [4]	IC50 [5]
C=CC(=O)N1CC(OC)(C(=O)N2CCC(n3nc(C)c(-c4cc(OC)c5c(C#N)cnn5c4)c3C)CC2)C1 [Example 95, 6-(1-(1-(1-acryloyl-3-methoxyazetidine-3-carbonyl)piperidin-4-yl)-3,5-dimethyl-1H-pyrazol-4-yl)-4-methoxypyrazolo[1,5-a]pyridine-3-carbonitrile]	0.675 µM	0.103 µM	0.00409 min⁻¹	0.04202 min⁻¹	1.07 µM
C=CC(=O)N1CC(F)(C(=O)N2CCC(n3ncc(-c4cc(OC)c5c(C#N)cnn5c4)c3CC)CC2)C1 [Example 96, 6-(1-(1-(1-acryloyl-3-fluoroazetidine-3-carbonyl)piperidin-4-yl)-5-ethyl-1H-pyrazol-4-yl)-4-methoxypyrazolo[1,5-a]pyridine-3-carbonitrile]	1.62 µM	0.291 µM	0.00363 min⁻¹	0.03335 min⁻¹	2.1 µM
C=CC(=O)N1CC(C(=O)N2CCN(c3ccc(-c4cc(OC)c5c(C#N)cnn5c4)cc3)CC2)C1 [Example 100, 6-(4-(4-(1-acryloylazetidine-3-carbonyl)piperazin-1-yl)phenyl)-4-methoxypyrazolo[1,5-a]pyridine-3-carbonitrile]	0.057 µM	0.002 µM	0.0025 min⁻¹	0.02324 min⁻¹	0.18 µM
C=CC(=O)N1CC(C(=O)N2CCC3(CC2)CN(c2ccc(-c4cc(OC)c5c(C#N)cnn5c4)cn2)C3)C1 [Example 102, 6-(6-(7-(1-acryloylazetidine-3-carbonyl)-2,7-diazaspiro[3.5]nonan-2-yl)pyridin-3-yl)-4-methoxypyrazolo[1,5-a]pyridine-3-carbonitrile]	0.044 µM	0.022 µM	0.00313 min⁻¹	0.02912 min⁻¹	0.239 µM
C=CC(=O)N1CC(C(=O)N2CCC3(C2)CN(c2ccc(-c4cc(OC)c5c(C#N)cnn5c4)cn2)C3)C1 [Example 103, 6-(6-(6-(1-acryloylazetidine-3-carbonyl)-2,6-diazaspiro[3.4]octan-2-yl)pyridin-3-yl)-4-methoxypyrazolo[1,5-a]pyridine-3-carbonitrile]	0.07 µM	0.02 µM	0.00388 min⁻¹	0.02186 min⁻¹	0.573 µM
C=CC(=O)N1CC(C(=O)N2CCC(n3cc(-c4cc(C(C)C)c5c(C#N)cnn5c4)cn3)CC2)C1 [Example 129, 6-(1-(1-(1-acryloylazetidine-3-carbonyl)piperidin-4-yl)-1H-pyrazol-4-yl)-4-isopropylpyrazolo[1,5-a]pyridine-3-carbonitrile]	0.271 µM	0.006 µM	0.00148 min⁻¹	0.01646 min⁻¹	–
C=CC(=O)N1CC(C(=O)N2CCC(n3cc(-c4cc(-c5ccc(NC(=O)C6CC6)cc5F)c5c(C#N)cnn5c4)cn3)CC2)C1 [Example 130, N-(4-(6-(1-(1-(1-acryloylazetidine-3-carbonyl)piperidin-4-yl)-1H-pyrazol-4-yl)-3-cyanopyrazolo[1,5-a]pyridin-4-yl)-3-fluorophenyl)cyclopropane-carboxamide]	0.007 µM	0.002 µM	0.00132 min⁻¹	0.01127 min⁻¹	–
C=CC(=O)N1CC(C(=O)N2CCC(n3cc(-c4cc(-c5ccccc5F)c5c(C#N)cnn5c4)cn3)CC2)C1 [Example 131, 6-(1-(1-(1-acryloylazetidine-3-carbonyl)piperidin-4-yl)-1H-pyrazol-4-yl)-4-(2-fluorophenyl)pyrazolo[1,5-a]pyridine-3-carbonitrile]	0.007 µM	0.004 µM	0.00146 min⁻¹	0.01762 min⁻¹	–
C=CC(=O)N1CC(CN2CCC(n3cc(-c4cc(OC)c5c(C#N)cnn5c4)cn3)CC2)C1 [Example 132, 6-(1-(1-((1-acryloylazetidin-3-yl)methyl)piperidin-4-yl)-1H-pyrazol-4-yl)-4-methoxypyrazolo[1,5-a]pyridine-3-carbonitrile]	0.071 µM	0.008 µM	0.00146 min⁻¹	0.013 min⁻¹	–
COc1cc(-c2cnn(C3CCN(C(=O)C4CN(C(=O)C5=CCC5)C4)CC3)c2)cn2ncc(C#N)c12 [Example 137, 6-(1-(1-(1-(cyclobut-1-ene-1-carbonyl)azetidine-3-carbonyl)piperidin-4-yl)-1H-pyrazol-4-yl)-4-methoxypyrazolo[1,5-a]pyridine-3-carbonitrile]	0.049 µM	0.005 µM	–	0.00097 min⁻¹	0.989 µM
COc1cc(-c2cnn(C3CCN(C(=O)C4CN(C(=O)/C=C/CN(C)C)C4)CC3)c2)cn2ncc(C#N)c12 [Example 143, (E)-6-(1-(1-(1-(4-(dimethylamino)but-2-enoyl)azetidine-3-carbonyl)piperidin-4-yl)-1H-pyrazol-4-yl)-4-methoxypyrazolo [1,5-a]pyridine-3-carbonitrile]	0.033 µM	0.002 µM	0.00278 min⁻¹	0.02052 min⁻¹	–
COc1cc(-c2cnn(C3CCN(C(=O)C4CN(C(=O)/C=C/CN5CCCCC5)C4)CC3)c2)cn2ncc(C#N)c12 [Example 145, (E)-4-methoxy-6-(1-(1-(1-(4-(piperidin-1-yl)but-2-enoyl)azetidine-3-carbonyl)piperidin-4-yl)-1H-pyrazol-4-yl)pyrazolo[1,5-a]pyridine-3-carbonitrile]	0.06 µM	0.003 µM	0.00179 min⁻¹	0.01811 min⁻¹	–
COc1cc(-c2cnn(C3CCN(C(=O)C4(F)CN(C(=O)/C=C/C(F)(F)F)C4)CC3)c2C)cn2ncc(C#N)c12 [Example 155, (E)-6-(1-(1-(3-fluoro-1-(4,4,4-trifluorobut-2-enoyl)azetidine-3-carbonyl)piperidin-4-yl)-5-methyl-1H-pyrazol-4-yl)-4-methoxypyrazolo [1,5-a]pyridine-3-carbonitrile]	0.426 µM	0.011 µM	0.03227 min⁻¹	–	0.157 µM
COc1cc(-c2cnn(C3CCN(C(=O)C4CN(C(=O)/C=C/CN(C)C)C4)CC3)c2)cn2ncc(Cl)c12 [Example 174]	0.194 µM	0.004 µM	0.00242 min⁻¹	0.02588 min⁻¹	–
COc1cc(-c2cnn(C3CCN(CC4CN(C(=O)/C=C/CN5CCCCC5)C4)CC3)c2)cn2ncc(C#N)c12 [Example 175, (E)-4-methoxy-6-(1-(1-((1-(4-(piperidin-1-yl)but-2-enoyl)azetidin-3-yl)methyl)piperidin-4-yl)-1H-pyrazol-4-yl)pyrazolo[1,5-a]pyridine-3-carbonitrile]	0.09 µM	0.005 µM	0.00204 min⁻¹	0.01233 min⁻¹	–
C=CC(=O)N(C)c1ccc(C(=O)N2CCC(n3cc(-c4cc(OC)c5c(C#N)cnn5c4)cn3)CC2)cc1 [Example 178, N-(4-(4-(4-(3-cyano-4-methoxypyrazolo[1,5-a]pyridin-6-yl)-1H-pyrazol-1-yl)piperidine-1-carbonyl)phenyl)-N-methylacrylamide]	0.061 µM	0.012 µM	0.00131 min⁻¹	0.01469 min⁻¹	–
